The test concerns BDF1 mice, P388 leukemia ip, median survival T/C. In words: NCI In Vivo Anticancer Drug Screen. Data for tumor model P388 Leukemia (intraperitoneal) in B6D2F1 (BDF1) mice. To be noted: endpoint: median survival time, higher = longer survival. The method in brief: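 Mice carrying the transplantable tumour receive compound or vehicle. Survival is followed in each arm, and the treated measure is divided by the vehicle measure.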

Setting [1] is: dose: 25.0 mg/kg/injection, schedule: Q04DX003 (ip), vehicle: saline with Tween-80.
[2] abbreviates: dose: 50.0 mg/kg/injection, schedule: Q01DX009 (ip), vehicle: saline with Tween-80.
[3] abbreviates: dose: 100.0 mg/kg/injection, schedule: Q04DX003 (ip), vehicle: saline with Tween-80.
The mark [4] stands for this setting: dose: 100.0 mg/kg/injection, schedule: Q01DX001 (ip), vehicle: Klucel (hydroxypropylcellulose) (HPC).
[5] abbreviates: dose: 100.0 mg/kg/injection, schedule: Q01DX009 (ip), vehicle: saline with Tween-80.

Molecules are shown by their SMILES. Values joined by “and” are separate entries in the source; they are usually repeats but may differ in a detail not shown here. Identical values can stand only once. Inconclusive results and toxic doses are left out.

Regarding `CCCCCCCCCCCCCCCC(=O)OCC1OC(n2ccc(N)nc2=O)C(O)C1O` (stereo not given), the T/C was 111 % of control (dose: 0.38 mg/kg/injection, schedule: Q04DX003 (ip), vehicle: saline with Tween-80); 109 % of control (dose: 0.88 mg/kg/injection, schedule: Q04DX003 (ip), vehicle: saline with Tween-80); 152 % of control (dose: 1.5 mg/kg/injection, schedule: Q04DX003 (ip), vehicle: saline with Tween-80); 154 % of control (dose: 2.0 mg/kg/injection, schedule: Q04DX003 (ip), vehicle: saline with Tween-80); 181 % of control and 189 % of control (dose: 3.0 mg/kg/injection, schedule: Q04DX003 (ip), vehicle: saline with Tween-80); 272 % of control and 215 % of control (dose: 3.13 mg/kg/injection, schedule: Q01DX009 (ip), vehicle: saline with Tween-80). The T/C reads like this: (dose: 6.25 mg/kg/injection, schedule: Q01DX009 (ip), vehicle: saline with Tween-80) 250 % of control and 322 % of control; (dose: 7.5 mg/kg/injection, schedule: Q01DX009 (ip), vehicle: saline with Tween-80) 186 % of control; (dose: 12.5 mg/kg/injection, schedule: Q01DX009 (ip), vehicle: saline with Tween-80) 300 % of control and 333 % of control; (dose: 15.0 mg/kg/injection, schedule: Q01DX009 (ip), vehicle: saline with Tween-80) 190 % of control; (dose: 22.0 mg/kg/injection, schedule: Q01DX009 (ip), vehicle: saline with Tween-80) 272 % of control; (dose: 25.0 mg/kg/injection, schedule: Q01DX009 (ip), vehicle: saline with Tween-80) 266 % of control and 300 % of control. The T/C is, setting by setting: under setting [1], 109 % of control; (dose: 30.0 mg/kg/injection, schedule: Q01DX009 (ip), vehicle: saline with Tween-80) 104 % of control; (dose: 30.25 mg/kg/injection, schedule: Q01DX001 (ip), vehicle: Klucel (hydroxypropylcellulose) (HPC)) 214 % of control; (dose: 31.75 mg/kg/injection, schedule: Q04DX002 (ip), vehicle: Klucel (hydroxypropylcellulose) (HPC)) 265 % of control and 204 % of control; (dose: 40.0 mg/kg/injection, schedule: Q01DX001 (ip), vehicle: saline with Tween-80) 171 % of control; (dose: 44.0 mg/kg/injection, schedule: Q04DX003 (ip), vehicle: saline sonified) 275 % of control. The T/C was 90 % of control under setting [2]; 195 % of control (dose: 50.0 mg/kg/injection, schedule: Q04DX003 (ip), vehicle: saline with Tween-80); 188 % of control (dose: 60.0 mg/kg/injection, schedule: Q01DX001 (ip), vehicle: saline with Tween-80); 241 % of control and 265 % of control (dose: 62.5 mg/kg/injection, schedule: Q04DX002 (ip), vehicle: Klucel (hydroxypropylcellulose) (HPC)); 300 % of control (dose: 66.0 mg/kg/injection, schedule: Q04DX003 (ip), vehicle: saline sonified); 197 % of control (dose: 90.0 mg/kg/injection, schedule: Q01DX001 (ip), vehicle: saline with Tween-80). Moreover, the T/C is 231 % of control (2×) and 217 % of control (dose: 90.0 mg/kg/injection, schedule: Q04DX003 (ip), vehicle: saline with Tween-80); 206 % of control (dose: 100.0 mg/kg/injection, schedule: Q01DX001 (ip), vehicle: saline); 300 % of control (dose: 100.0 mg/kg/injection, schedule: Q04DX003 (ip), vehicle: saline sonified); 300 % of control and 168 % of control under setting [3]; 392 % of control (dose: 125.0 mg/kg/injection, schedule: Q01DX001 (ip), vehicle: saline with Tween-80); 265 % of control (dose: 125.0 mg/kg/injection, schedule: Q04DX002 (ip), vehicle: Klucel (hydroxypropylcellulose) (HPC)). Besides, the T/C was 318 % of control (dose: 150.0 mg/kg/injection, schedule: Q01DX001 (ip), vehicle: saline); 120 % of control (dose: 150.0 mg/kg/injection, schedule: Q04DX003 (ip), vehicle: saline sonified); 239 % of control and 196 % of control and 214 % of control (dose: 200.0 mg/kg/injection, schedule: Q01DX001 (ip), vehicle: saline with Tween-80); 95 % of control and 120 % of control (dose: 200.0 mg/kg/injection, schedule: Q04DX003 (ip), vehicle: saline with Tween-80).

Regarding `O=C(NCC(S)c1ccc(Cl)cc1)C(F)(F)F` (stereo not given), the T/C (dose: 6.25 mg/kg/injection, schedule: Q04DX003 (ip), vehicle: saline with Tween-80) is 100 % of control; the T/C (dose: 12.5 mg/kg/injection, schedule: Q04DX003 (ip), vehicle: saline with Tween-80) was 100 % of control; the T/C under setting [1] is 118 % of control.

`N#CCc1cnc2nc(N)nc(N)c2n1`: the T/C was 102 % of control (dose: 3.13 mg/kg/injection, schedule: Q01DX009 (ip), vehicle: other); 98 % of control (dose: 6.25 mg/kg/injection, schedule: Q01DX009 (ip), vehicle: other); 107 % of control (dose: 12.5 mg/kg/injection, schedule: Q01DX009 (ip), vehicle: other); 107 % of control (dose: 25.0 mg/kg/injection, schedule: Q01DX009 (ip), vehicle: other).

In the case of `COc1ccc(/C=C(/C#N)C(N)=O)cc1Br`, the T/C under setting [4] is 100 % of control; the T/C (dose: 100.0 mg/kg/injection, schedule: Q01DX009 (ip), vehicle: saline) is 100 % of control; the T/C (dose: 100.0 mg/kg/injection, schedule: Q04DX003 (ip), vehicle: saline) was 100 % of control; the T/C (dose: 200.0 mg/kg/injection, schedule: Q01DX001 (ip), vehicle: Klucel (hydroxypropylcellulose) (HPC)) was 113 % of control; the T/C (dose: 200.0 mg/kg/injection, schedule: Q01DX009 (ip), vehicle: saline) was 95 % of control; the T/C (dose: 200.0 mg/kg/injection, schedule: Q04DX003 (ip), vehicle: saline) was 120 % of control. The T/C is 109 % of control (dose: 400.0 mg/kg/injection, schedule: Q01DX001 (ip), vehicle: Klucel (hydroxypropylcellulose) (HPC)); 90 % of control (dose: 400.0 mg/kg/injection, schedule: Q01DX009 (ip), vehicle: saline); 120 % of control (dose: 400.0 mg/kg/injection, schedule: Q04DX003 (ip), vehicle: saline).

Take `NC(C(=O)O)C1=CCC=CC1` (stereo not given): the T/C reads like this: under setting [2], 98 % of control; under setting [5], 99 % of control.

As for `CN(C)CCNc1cc(O)c2c(c1O)C(=O)c1ccccc1C2=O`, the T/C was 113 % of control (dose: 50.0 mg/kg/injection, schedule: Q01DX005 (ip), vehicle: saline with Tween-80); 103 % of control (dose: 100.0 mg/kg/injection, schedule: Q01DX005 (ip), vehicle: saline with Tween-80); 113 % of control (dose: 200.0 mg/kg/injection, schedule: Q01DX005 (ip), vehicle: saline with Tween-80).

With `O=C(O)CCNSc1ccccc1[N+](=O)[O-]`, the T/C was 106 % of control under setting [2] and 106 % of control under setting [5].

As for `CC1(C)CS(=O)(=O)CC1=O`, the T/C (dose: 25.0 mg/kg/injection, schedule: Q01DX001 (ip), vehicle: Klucel (hydroxypropylcellulose) (HPC)) was 100 % of control; the T/C (dose: 50.0 mg/kg/injection, schedule: Q01DX001 (ip), vehicle: Klucel (hydroxypropylcellulose) (HPC)) is 100 % of control; the T/C under setting [4] was 90 % of control and 104 % of control.

As for `CC(=O)Nc1ccn(C2OC(COC(C)=O)C(OC(C)=O)C2OC(C)=O)c(=O)n1` (stereo not given), the T/C is 109 % of control under setting [3]; 104 % of control (dose: 177.0 mg/kg/injection, schedule: Q04DX003 (ip), vehicle: saline with Tween-80); 100 % of control and 116 % of control (dose: 266.0 mg/kg/injection, schedule: Q04DX003 (ip), vehicle: saline with Tween-80); 108 % of control and 118 % of control (dose: 400.0 mg/kg/injection, schedule: Q04DX003 (ip), vehicle: saline with Tween-80).

As to `CN(C)C=O.CN(C)C=O.[Cl][Sn]([Cl])([Cl])[Cl]`, the T/C is 100 % of control (dose: 25.0 mg/kg/injection, schedule: Q01DX009 (ip), vehicle: Klucel (hydroxypropylcellulose) (HPC)); 105 % of control (dose: 50.0 mg/kg/injection, schedule: Q01DX009 (ip), vehicle: Klucel (hydroxypropylcellulose) (HPC)); 109 % of control (dose: 75.0 mg/kg/injection, schedule: Q04DX003 (ip), vehicle: Klucel (hydroxypropylcellulose) (HPC)); 100 % of control (dose: 100.0 mg/kg/injection, schedule: Q01DX009 (ip), vehicle: Klucel (hydroxypropylcellulose) (HPC)); 86 % of control (dose: 150.0 mg/kg/injection, schedule: Q04DX003 (ip), vehicle: Klucel (hydroxypropylcellulose) (HPC)).

Turning to `CCCCOCN(COCCCC)C12CC3CC(CC(C3)C1)C2`, the T/C under setting [2] is 120 % of control.
